Patent US20030065192A1, “Antimicrobial compounds and methods of use” (priority 2001, published 2003)

Tests used:
Aspergillus niger 16404 = assay: High resolution minimum inhibitory concentration (HRMIC) test, A. niger; type: cell-based; details: for control of fungal organisms (A. niger): result in words; for MIC (ppm) A. niger: ppm active ingredient, M9GY medium, 30° C., 24 hours, average of multiple determinations
Experimental: (§1) Biological Activity: certain compounds of the present invention were tested for activity against three microorganisms, Escherichia coli 8739 (Gram-negative bacterium) and Staphylococcus aureus 6538 (Gram-positive bacterium) and Aspergillus niger 16404.
(§2) The lowest concentration of test compound required to inhibit Staphylococcus aureus 6538, Escherichia coli 8739 and Aspergillus niger 16404 was determined by a high resolution minimum inhibitory concentration (HRMIC) test. Varying amounts of the test compounds were added to minimal salts glucose medium (see T. Maniatis, E. F. Fritsch and J. Sambrook, Molecular Cloning, p 68 (1982)) supplemented with 0.1% yeast extract (M9GY) in a 96-well microtiter plate. […] serial dilutions were performed on a Biomek™ 2000 Workstation to obtain a range of closely spaced concentrations of test compound as shown in Table 1 (based on dilutions of a 10,000 ppm active ingredient stock solution of the test compound). The plates were inoculated with cell suspension of inoculum and adjusted to provide about 10^6 CFU (colony forming units)/ml in each well. The microtiter plates were incubated at 30° C. for 24 hours and then checked (optical density at 650 nm using a microplate reader) for the presence or absence of microbial growth in each well. […] Data reported (ppm active ingredient) are the average of multiple determinations (see Table 2).

[1] = system: Staphylococcus aureus 6538; assay: High resolution minimum inhibitory concentration (HRMIC) test, S. aureus; type: cell-based; details: for MIC (ppm) S. aur: ppm active ingredient, M9GY medium, 30° C., 24 hours, average of multiple determinations
Experimental: as §1, §2

Escherichia coli 8739 = assay: High resolution minimum inhibitory concentration (HRMIC) test, E. coli; type: cell-based; details: ppm active ingredient; M9GY medium, 30° C., 24 hours; average of multiple determinations
Experimental: as §1, §2

In the case of Cn1sc(Sc2cccc[n+]2[O-])cc1=O [Compound 3, [2-methyl-3-isothiazolon-5-yl]-(1-oxypyridin-2-yl)sulfide], the “control of fungal organisms (A. niger)” value (Aspergillus niger 16404) is reported as “effective control” and the melting point is reported as 141 to 143 °C.
For CCCCCCCCn1sc(Sc2cccc[n+]2[O-])c(Cl)c1=O [Compound 5, [4-chloro-2-n-octyl-3-isothiazolon-5-yl]-(1-oxypyridin-2-yl)sulfide], the “MIC (ppm) A. niger” value (Aspergillus niger 16404) was 10 ppm, the “control of fungal organisms (A. niger)” value (Aspergillus niger 16404) was “effective control” and the “MIC (ppm) S. aur” value [1] was 0.9 ppm. For the same molecule, the “better control versus Gram-positive (S. aur) bacteria than compound 6” value ([1]; relative to compound 6, from Table 2 MIC) was 5 fold and the “MIC (ppm) E. coli” value (Escherichia coli 8739) was 30 ppm.
With Cn1sc(Sc2nc3ccccc3s2)cc1=O [Compound 6, [2-methyl-3-isothiazolon-5-yl]-(benzothiazol-2′-yl)sulfide, reference compound] the “MIC (ppm) A. niger” value (Aspergillus niger 16404) was 15 ppm, the “MIC (ppm) S. aur” value [1] was 5 ppm and the “MIC (ppm) E. coli” value (Escherichia coli 8739) was over 1000 ppm.
